Read-outs that look alike come from different tables or passages of the source.
How the values were obtained:
[1] = target: T1, JAK2 (Homo sapiens, UniProt O60674); experiment: Recombinant Human JAK2 Kinase Assay (TRF); assay type: biochemical; details: read-out: JAK2 Potency
T1 construct: host or cells: baculovirus expression system
How it was run: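 TRF read-out: Eu-N1 PY100 anti-phosphotyrosine antibody detects product. Enzyme is baculovirus-expressed JAK2 at 15 ng/ml; substrate is a biotinyl 15-mer peptide bound to Neutravidin-coated wells. Buffer 20 mM HEPES pH 7.2, 0.2 μM ATP, 1 mM MnCl2, 0.1% BSA, 2.5% DMSO final; 20 min, RT.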

[2] = target: T2, ALK (Homo sapiens, UniProt Q9UM73); experiment: ALK Kinase Assay (ELISA/TRF, PLC-γ substrate); assay type: biochemical; details: read-out: ALK Potency
T2 construct: host or cells: baculovirus expression system
T2 sequence (Q9UM73 19-1620): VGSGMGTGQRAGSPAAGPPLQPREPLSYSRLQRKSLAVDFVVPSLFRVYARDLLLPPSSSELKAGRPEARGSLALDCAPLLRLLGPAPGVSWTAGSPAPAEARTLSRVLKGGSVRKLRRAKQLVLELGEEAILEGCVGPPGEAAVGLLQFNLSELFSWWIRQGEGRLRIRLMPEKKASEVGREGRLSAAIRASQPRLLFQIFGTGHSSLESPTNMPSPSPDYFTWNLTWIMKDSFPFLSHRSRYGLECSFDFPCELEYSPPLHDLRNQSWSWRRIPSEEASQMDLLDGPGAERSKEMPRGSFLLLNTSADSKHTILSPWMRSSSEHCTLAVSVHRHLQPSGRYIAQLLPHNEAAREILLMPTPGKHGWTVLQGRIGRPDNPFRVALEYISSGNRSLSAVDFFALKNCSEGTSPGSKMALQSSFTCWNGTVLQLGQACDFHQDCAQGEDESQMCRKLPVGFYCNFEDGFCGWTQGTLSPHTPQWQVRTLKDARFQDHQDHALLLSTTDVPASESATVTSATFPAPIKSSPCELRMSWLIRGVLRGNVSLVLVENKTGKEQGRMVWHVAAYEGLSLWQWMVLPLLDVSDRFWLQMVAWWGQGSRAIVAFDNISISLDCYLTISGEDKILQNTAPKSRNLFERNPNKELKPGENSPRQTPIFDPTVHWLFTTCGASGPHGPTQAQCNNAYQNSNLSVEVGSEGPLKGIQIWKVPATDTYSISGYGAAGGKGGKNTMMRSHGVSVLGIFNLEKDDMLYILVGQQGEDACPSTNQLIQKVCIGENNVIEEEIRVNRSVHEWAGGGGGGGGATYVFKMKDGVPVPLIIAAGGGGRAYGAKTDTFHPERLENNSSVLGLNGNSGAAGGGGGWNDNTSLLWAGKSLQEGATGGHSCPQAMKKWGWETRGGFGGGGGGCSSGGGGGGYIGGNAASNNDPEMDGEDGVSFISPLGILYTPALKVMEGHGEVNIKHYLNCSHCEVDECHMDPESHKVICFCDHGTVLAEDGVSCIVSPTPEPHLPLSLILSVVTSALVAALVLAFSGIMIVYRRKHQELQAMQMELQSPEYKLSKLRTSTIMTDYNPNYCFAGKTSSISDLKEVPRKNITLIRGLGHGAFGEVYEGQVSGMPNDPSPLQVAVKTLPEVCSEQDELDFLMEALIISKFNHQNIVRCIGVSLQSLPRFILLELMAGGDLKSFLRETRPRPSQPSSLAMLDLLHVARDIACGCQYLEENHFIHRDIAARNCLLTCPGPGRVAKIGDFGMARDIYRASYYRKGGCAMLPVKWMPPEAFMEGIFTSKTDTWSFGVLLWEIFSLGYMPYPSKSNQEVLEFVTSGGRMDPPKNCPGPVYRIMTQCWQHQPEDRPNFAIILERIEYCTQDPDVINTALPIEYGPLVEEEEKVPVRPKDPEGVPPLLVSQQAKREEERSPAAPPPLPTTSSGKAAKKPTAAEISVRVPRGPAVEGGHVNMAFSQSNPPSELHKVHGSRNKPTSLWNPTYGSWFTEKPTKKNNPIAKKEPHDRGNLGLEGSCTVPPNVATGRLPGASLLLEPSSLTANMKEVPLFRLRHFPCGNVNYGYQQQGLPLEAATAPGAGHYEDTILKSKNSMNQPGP
How it was run: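 PLC-γ coat 10 μg/mL in TBS; ALK 30 ng/ml added to start; 37° C, 15 min; Eu-N1 PT66 antibody detection (TRF). IC50: % inhibition vs log10 [cpd], variable-slope sigmoidal fit.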

[3] = JAK2 kinase inhibition, 0.2 μM ATP
[4] = ALK kinase inhibition, 1 μM ATP

T1 sequence (O60674 whole entry): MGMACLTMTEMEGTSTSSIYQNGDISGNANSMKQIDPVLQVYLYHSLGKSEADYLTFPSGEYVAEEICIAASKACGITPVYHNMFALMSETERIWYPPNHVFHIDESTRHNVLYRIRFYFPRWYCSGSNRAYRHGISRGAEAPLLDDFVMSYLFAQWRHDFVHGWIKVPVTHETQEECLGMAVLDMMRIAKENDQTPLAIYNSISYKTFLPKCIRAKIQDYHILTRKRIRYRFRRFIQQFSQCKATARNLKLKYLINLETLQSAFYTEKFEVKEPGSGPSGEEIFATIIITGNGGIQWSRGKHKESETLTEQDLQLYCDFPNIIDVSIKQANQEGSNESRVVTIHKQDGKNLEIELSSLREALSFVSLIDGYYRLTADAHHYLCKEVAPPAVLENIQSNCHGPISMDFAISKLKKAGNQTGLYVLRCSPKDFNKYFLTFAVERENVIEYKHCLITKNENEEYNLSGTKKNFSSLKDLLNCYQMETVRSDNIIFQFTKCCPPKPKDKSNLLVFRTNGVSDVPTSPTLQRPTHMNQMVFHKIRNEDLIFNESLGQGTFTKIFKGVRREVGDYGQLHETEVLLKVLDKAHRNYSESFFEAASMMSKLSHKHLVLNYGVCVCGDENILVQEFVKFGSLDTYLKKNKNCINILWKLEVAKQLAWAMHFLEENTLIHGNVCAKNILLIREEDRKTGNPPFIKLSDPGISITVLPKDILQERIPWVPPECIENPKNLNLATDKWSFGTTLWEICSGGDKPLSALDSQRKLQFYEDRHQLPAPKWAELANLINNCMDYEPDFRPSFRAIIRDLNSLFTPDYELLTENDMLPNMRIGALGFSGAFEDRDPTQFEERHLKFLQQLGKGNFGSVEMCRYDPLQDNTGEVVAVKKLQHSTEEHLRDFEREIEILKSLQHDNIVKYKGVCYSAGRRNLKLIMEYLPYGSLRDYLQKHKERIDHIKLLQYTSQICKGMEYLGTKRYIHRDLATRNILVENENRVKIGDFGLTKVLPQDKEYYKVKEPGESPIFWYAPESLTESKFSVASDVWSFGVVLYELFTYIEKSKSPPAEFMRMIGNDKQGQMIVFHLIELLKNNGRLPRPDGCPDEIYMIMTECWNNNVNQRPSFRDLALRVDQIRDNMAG

| IC50 [1, 3] [nM] | IC50 [2, 4] [nM] | IC50 ([1]; JAK2 Kinase Inhibition) [nM] | IC50 ([2]; ALK Kinase Inhibition) [nM] | SMILES |
| --- | --- | --- | --- | --- |
| 100 to 1000 | 100 to 1000 | – | – | COc1cc(N2CCC(N3CCOCC3)CC2)ccc1Nc1ncc2ccc(-c3ccccc3[S+](C)[O-])n2n1 (centres unmarked) [Example 544, [7-(2-Methanesulfinyl-phenyl)-pyrrolo[2,1-f][1,2,4]triazin-2-yl]-[2-methoxy-4-(4-morpholin-4-yl-piperidin-1-yl)-phenyl]-amine] |
| – | – | 100 to 1000 | < 100 | COc1cc2c(cc1Nc1ncc3ccc(-c4ccccc4OC)n3n1)C(=O)CC1(CCN(C)CC1)O2 [Example 1491] |
| – | – | < 100 | 100 to 1000 | c1ccc(Sc2ccc3cnc(Nc4ccc(N5CCOCC5)cc4)nn23)cc1 [Example 97, (4-Morpholin-4-yl-phenyl)-(7-phenylsulfanyl-pyrrolo[2,1-f][1,2,4]triazin-2-yl)-amine] |
| – | – | < 100 | 100 to 1000 | COc1ccc(-c2ccc3cnc(Nc4ccc(N5CCN(C)CC5)cc4)nn23)cc1 [Example 421, [7-(4-Methoxy-phenyl)-pyrrolo[2,1-f][1,2,4]triazin-2-yl]-[4-(4-methyl-piperazin-1-yl)-phenyl]-amine] |
| < 100 | < 100 | – | – | CN1CCN(c2cccc(Nc3ncc4ccc(-c5cccc(CCC#N)c5)n4n3)c2)CC1 [Example 1153, 3-(3-{2-[3-(4-Methyl-piperazin-1-yl)-phenylamino]-pyrrolo[2,1-f][1,2,4]triazin-7-yl}-phenyl)-propionitrile] |
| < 100 | 1000 to 10000 | – | – | CN1CCN(c2cccc(Nc3ncc4ccc(-c5cnn(C)c5)n4n3)c2)CC1 [Example 969, [3-(4-Methyl-piperazin-1-yl)-phenyl]-[7-(1-methyl-1H-pyrazol-4-yl)-pyrrolo[2,1-f][1,2,4]triazin-2-yl]-amine] |
| < 100 | < 100 | – | – | COc1cc(N2CCC(N3CCOCC3)CC2)ccc1Nc1ncc2ccc(-c3cccc4c3OCCO4)n2n1 [Example 546, [7-(2,3-Dihydro-1,4-benzodioxin-5-yl)-pyrrolo[2,1-f][1,2,4]triazin-2-yl]-[2-methoxy-4-(4-morpholin-4-yl-piperidin-1-yl)-phenyl]-amine] |
| 100 to 1000 | < 100 | – | – | COc1cc(C2CCN(CCO)CC2)ccc1Nc1ncc2ccc(-c3cccc4c3OCC4)n2n1 [Example 702, 2-(4-{4-[7-(2,3-Dihydro-benzofuran-7-yl)-pyrrolo[2,1-f][1,2,4]triazin-2-ylamino]-3-methoxy-phenyl}-piperidin-1-yl)-ethanol] |
| – | – | > 10000 | > 10000 | COc1ccccc1-c1ccc2cnc(C(N)=O)nn12 [Example 1495, 7-(2-Methoxy-phenyl)-pyrrolo[2,1-f][1,2,4]triazine-2-carboxylic acid amide] |
| < 100 | < 100 | – | – | CN(c1ncccc1-c1ccc2cnc(Nc3ccc(C4CCN(CC(N)=O)CC4)cc3)nn12)S(C)(=O)=O [Example 1258, 2-[4-(4-{7-[2-(Methanesulfonyl-methyl-amino)-pyridin-3-yl]-pyrrolo[2,1-f][1,2,4]triazin-2-ylamino}-phenyl)-piperidin-1-yl]-acetamide] |
| – | – | < 100 | 100 to 1000 | C[C@@H](O)CN1CCN(c2ccc(Nc3ncc4ccc(-c5cccc(Cl)c5)n4n3)cc2)CC1 [Example 208, (R)-1-(4-{4-[7-(3-Chloro-phenyl)-pyrrolo[2,1-f][1,2,4]triazin-2-ylamino]-phenyl}-piperazin-1-yl)-propan-2-ol] |
| < 100 | 100 to 1000 | – | – | COc1cc(N2CCC(N3CCOCC3)CC2)ccc1Nc1ncc2ccc(-c3cccnc3)n2n1 [Example 1170, [2-Methoxy-4-(4-morpholin-4-yl-piperidin-1-yl)-phenyl]-(7-pyridin-3-yl-pyrrolo[2,1-f][1,2,4]triazin-2-yl)-amine] |
| – | – | < 100 | 100 to 1000 | O=S1(=O)CCCN1c1cccc(-c2ccc3cnc(Nc4ccc5c(c4)CCC(N4CCOCC4)CC5)nn23)c1 (centres unmarked) [Example 1507, 7-[3-(1,1-Dioxido-1,2-thiazolidin-2-yl)phenyl]-N-[7-(morpholin-4-yl)-6,7,8,9-tetrahydro-5H-benzo[7]annulen-2-yl]pyrrolo[2,1-f][1,2,4]triazin-2-amine] |
